Patent US20250262247A1, “MICROGLIAL CELLS AS THERAPEUTIC TARGETS IN NEURODEVELOPMENTAL DISORDERS” (The Regents of the University of California, priority 2022, published 2025)

System: MGL
Test: Phagocytosis assay with block of zymosan uptake
Assay type: cell-based, human
Details: 1 μM, 30 min prior to incubation with zymosan
Protocol: Phagocytosis Assay. Phagocytosis assay was performed according to the manufacturer's instructions with pHrodo™ Red Zymosan A BioParticles® (Life Technologies, Carlsbad, USA) conjugate for phagocytosis. Briefly, 20,000 MGL were plated on a 96-well tissue culture plate and incubated in M2 media [Neurobasal media supplemented with 2×Gem21 NeuroPlex, 1×NEAA, 1× Glutamax] containing fluorescently labeled zymosan particles (0.125 mg/ml) for 2 h at 37° C., 5% CO2. Fluorescence was measured with Tecan Infinite 200 PRO microplate reader (Life Sciences, Switzerland).
For experiments featuring block of zymosan uptake, cell monolayers were treated with 1 μM Cytochalasin D (Sigma-Aldrich) 30 min prior to incubation with zymosan.

Compound: C=C1[C@@H](C)[C@H]2[C@H](Cc3ccccc3)NC(=O)[C@]23[C@H](OC(C)=O)/C=C/[C@@](C)(O)C(=O)[C@@H](C)C/C=C/[C@H]3[C@@H]1O [Cytochalasin D]
- Engulfment of zymosan particles: reduced
